In brackets after ≈: the same amount, converted by molar mass.
Experiments:
Rattus norvegicus [1] = species: Rattus norvegicus; test: Displacement of [3H]GABA from GABA receptor in Wistar rat brain assessed as residual binding level for radioligand at 10 uM after 20 mins by radiometric scintillation analysis relative to control; format: tissue-based
[2] = molecular target: T1, Muscarinic acetylcholine receptor M2 (Homo sapiens, UniProt P08172); test: Positive allosteric modulation of human M2 receptor/Gqi5 in presence of EC20 acetylcholine by calcium mobilization assay
T1 sequence (P08172 whole entry): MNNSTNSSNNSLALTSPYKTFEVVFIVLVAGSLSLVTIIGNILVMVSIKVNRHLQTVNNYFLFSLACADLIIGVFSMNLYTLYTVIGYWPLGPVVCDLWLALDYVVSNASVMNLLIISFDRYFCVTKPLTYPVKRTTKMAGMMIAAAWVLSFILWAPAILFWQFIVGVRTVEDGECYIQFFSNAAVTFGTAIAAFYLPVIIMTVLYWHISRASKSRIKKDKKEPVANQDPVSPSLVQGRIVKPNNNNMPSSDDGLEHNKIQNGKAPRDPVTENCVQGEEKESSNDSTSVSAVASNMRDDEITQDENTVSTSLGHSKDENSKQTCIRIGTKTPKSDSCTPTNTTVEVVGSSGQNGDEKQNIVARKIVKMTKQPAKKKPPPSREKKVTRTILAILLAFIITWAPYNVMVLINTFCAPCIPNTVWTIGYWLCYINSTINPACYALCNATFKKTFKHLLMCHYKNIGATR

[3] = molecular target: Alpha-1A adrenergic receptor (Homo sapiens) (UniProt P35348); test: Displacement of [3H]-Prazosin from human adrenergic alpha 1A receptor expressed in Chem-1 cells assessed as residual binding level for radioligand at 10 uM incubated for 60 mins by radiometric scintillation analysis relative to control; format: cell-based
[4] = molecular target: Androgen receptor (Homo sapiens) (UniProt P10275); test: Displacement of [3H]methyltrienolone from androgen receptor in human LNCaP cells assessed as residual binding level for radioligand at 10 uM measured after 1200 mins radiometric scintillation analysis relative to control; format: cell-based
[5] = Distribution coefficient, log D of the compound pH 7.5; format: physicochemical; settings: octanol/water
[6] = molecular target: Muscarinic acetylcholine receptor M2 (Homo sapiens) (UniProt P08172); test: Displacement of [3H]N-Methylscopolamine from full length human recombinant muscarinic M2 receptor expressed in CHO-K1 cells assessed as residual binding level for radioligand at 10 uM measured after 120 mins by radiometric scintillation analysis relative to control; format: cell-based
[7] = molecular target: Beta-2 adrenergic receptor (Homo sapiens) (UniProt P07550); test: Displacement of [3H]-(-)CGP 12177 from recombinant full length human adrenergic beta 2 receptor expressed in CHO-hNBR1 cells assessed as residual binding level for radioligand at 10 uM incubated for 60 mins by radiometric scintillation analysis relative to control; format: cell-based
[8] = Unbound brain-to-plasma concentration ratio in Sprague-Dawley rat at 0.1 to 0.2 mg/kg, iv measured after 0.25 hrs; format: ADME, organism-based; settings: dose 0.1-0.2 mg/kg, read-out: K(p,uu,brain)
[9] = Hepatic clearance in rat; format: ADME; settings: in vivo
[10] = molecular target: 5-hydroxytryptamine receptor 3A (Homo sapiens) (UniProt P46098); test: Displacement of [3H]GR-65630 from full length human recombinant 5HT3 receptor expressed in HEK293 cells assessed as residual binding level for radioligand at 10 uM measured after 60 mins by radiometric scintillation analysis relative to control; format: cell-based
[11] = molecular target: Kappa-type opioid receptor (Homo sapiens) (UniProt P41145); test: Displacement of [3H]-Diprenorphine from recombinant full length human kappa opioid receptor expressed in HEK293 cells assessed as residual binding level for radioligand at 10 uM incubated for 60 mins by scintillation counting analysis relative to control; format: cell-based
[12] = molecular target: D(1A) dopamine receptor (Homo sapiens) (UniProt P21728); test: Displacement of [3H]-SCH 23390 from recombinant full length human dopamine D1 receptor expressed in CHO cells assessed as residual binding level for radioligand at 10 uM after 120 mins by radiometric scintillation analysis relative to control; format: cell-based
[13] = molecular target: Sigma non-opioid intracellular receptor 1 (Homo sapiens) (UniProt Q99720); test: Displacement of [3H]-(+)-pentazocine from human sigma-1 receptor in human T lymphocyte Jurkat cell membrane assessed as residual binding level for radioligand at 10 uM incubated for 120 mins by liquid scintillation counting method relative to control; format: tissue-based
[14] = molecular target: Neuropeptide Y receptor type 2 (Homo sapiens) (UniProt P49146); test: Displacement of [125I]peptide YY from human Y2 receptor in KAN-TS cell membrane assessed as residual binding level for radioligand at 10 uM after 120 mins by scintillation counting analysis relative to control
[15] = Solubility of the compound in FaSSIF; format: physicochemical
[16] = molecular target: 5-hydroxytryptamine receptor 2B (Homo sapiens) (UniProt P41595); test: Displacement of [3H]-LSD from recombinant full length human 5HT2B receptor expressed in CHO-K1 cells assessed as residual binding level for radioligand at 10 uM incubated for 60 mins by; format: cell-based
Cytochrome P450 2C9 = Cytochrome P450 2C9 (Homo sapiens, UniProt P11712); test: Inhibition of CYP2C9 (unknown origin); format: ADME
[17] = molecular target: Adenosine receptor A3 (Homo sapiens) (UniProt P0DMS8); test: Displacement of [125I]AB-MECA from recombinant full length human adenosine A3 receptor expressed in CHO-K1 cells assessed as residual binding level for radioligand at 10 uM after 60 mins by radiometric scintillation analysis relative to control; format: cell-based
[18] = Unbound brain-to-plasma concentration ratio in cynomolgus monkey; format: ADME, Macaca fascicularis; settings: read-out: K(p,uu,brain)
[19] = molecular target: Muscarinic acetylcholine receptor M3 (Homo sapiens, UniProt P20309); test: Positive allosteric modulation of human M3 receptor
[20] = molecular target: Alpha-2A adrenergic receptor (Homo sapiens) (UniProt P08913); test: Displacement of [3H][…] from recombinant full length human adrenergic alpha 2A receptor expressed in CHO-K1 cells assessed as residual binding level for radioligand at 10 uM incubated for 60 mins by radiometric scintillation analysis relative to control; format: cell-based
[21] = molecular target: Interleukin-1 receptor type 1 (Homo sapiens) (UniProt P14778); test: Displacement of [125I]-Interleukin 1beta from human interleukin IL-1 R1 receptor assessed as residual binding level for radioligand at 10 uM incubated for 1200 mins by scintillation counting analysis relative to control
[22] = molecular target: Beta-1 adrenergic receptor (Homo sapiens) (UniProt P08588); test: Displacement of [125I]Cyanopindolol from recombinant full length human beta1 adrenoceptor expressed in CHO-K1 cells assessed as residual binding level for radioligand at 10 uM after 120 mins by radiometric scintillation analysis relative to control; format: cell-based
Rattus norvegicus [23] = species: Rattus norvegicus; test: Displacement of [3H]-idazoxan from imidazoline I2 receptor in Wistar rat brain assessed as residual binding level for radioligand at 10 uM incubated for 30 mins by scintillation counting analysis relative to control; format: tissue-based
Rattus norvegicus [24] = species: Rattus norvegicus; test: Displacement of [3H]-MDL105519 from NMDA glutamate receptor glycine binding site in Wistar rat brain assessed as residual binding level for radioligand at 10 uM incubated for 30 mins by scintillation counting analysis relative to control; format: tissue-based
Cytochrome P450 2D6 = Cytochrome P450 2D6 (Homo sapiens, UniProt P10635); test: Inhibition of CYP2D6 (unknown origin); format: ADME
[25] = Brain to plasma permeability coefficient, Kp in cynomolgus monkey; format: ADME, Macaca fascicularis

Sequence of Alpha-2A adrenergic receptor (Homo sapiens) (P08913 whole entry): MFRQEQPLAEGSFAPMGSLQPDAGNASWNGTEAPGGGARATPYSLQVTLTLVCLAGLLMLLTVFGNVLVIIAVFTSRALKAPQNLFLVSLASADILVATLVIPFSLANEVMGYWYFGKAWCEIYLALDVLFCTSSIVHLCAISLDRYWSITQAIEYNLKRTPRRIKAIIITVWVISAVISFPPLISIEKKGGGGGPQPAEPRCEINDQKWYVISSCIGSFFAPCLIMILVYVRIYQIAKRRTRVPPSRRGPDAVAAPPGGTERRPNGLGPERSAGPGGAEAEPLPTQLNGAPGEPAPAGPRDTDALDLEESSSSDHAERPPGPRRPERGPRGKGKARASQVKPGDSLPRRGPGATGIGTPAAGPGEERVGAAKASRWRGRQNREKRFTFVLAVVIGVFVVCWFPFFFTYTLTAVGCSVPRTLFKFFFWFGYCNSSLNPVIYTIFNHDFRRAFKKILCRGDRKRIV
Sequence of Cytochrome P450 2C9 (P11712 whole entry): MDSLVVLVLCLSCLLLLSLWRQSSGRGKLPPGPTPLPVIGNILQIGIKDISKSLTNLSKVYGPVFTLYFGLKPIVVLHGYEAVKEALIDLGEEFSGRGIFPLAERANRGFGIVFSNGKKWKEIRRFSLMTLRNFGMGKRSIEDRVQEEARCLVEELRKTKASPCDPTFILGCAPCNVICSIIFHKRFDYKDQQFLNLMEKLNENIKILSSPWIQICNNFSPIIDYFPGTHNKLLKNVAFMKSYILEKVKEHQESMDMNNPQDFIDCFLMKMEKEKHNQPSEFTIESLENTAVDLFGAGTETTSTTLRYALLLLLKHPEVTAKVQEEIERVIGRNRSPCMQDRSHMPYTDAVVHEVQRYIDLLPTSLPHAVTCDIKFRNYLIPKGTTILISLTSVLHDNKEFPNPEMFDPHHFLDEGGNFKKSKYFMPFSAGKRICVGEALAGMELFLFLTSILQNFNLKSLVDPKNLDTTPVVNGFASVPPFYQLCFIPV
Sequence of Cytochrome P450 2D6 (P10635 whole entry): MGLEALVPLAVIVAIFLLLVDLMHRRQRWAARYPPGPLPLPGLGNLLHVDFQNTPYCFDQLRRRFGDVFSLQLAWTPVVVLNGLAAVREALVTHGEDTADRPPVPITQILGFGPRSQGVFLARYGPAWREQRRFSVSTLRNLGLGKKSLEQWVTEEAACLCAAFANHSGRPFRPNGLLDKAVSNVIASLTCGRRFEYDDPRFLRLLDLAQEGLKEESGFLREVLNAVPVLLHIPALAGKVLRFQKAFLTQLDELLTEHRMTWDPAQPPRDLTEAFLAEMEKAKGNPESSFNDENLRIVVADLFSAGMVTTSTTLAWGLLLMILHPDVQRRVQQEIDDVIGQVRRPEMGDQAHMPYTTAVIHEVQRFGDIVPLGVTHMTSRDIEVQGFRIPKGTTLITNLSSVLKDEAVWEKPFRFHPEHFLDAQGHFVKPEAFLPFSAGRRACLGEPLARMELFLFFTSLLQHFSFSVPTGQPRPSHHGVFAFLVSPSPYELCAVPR
Sequence of Interleukin-1 receptor type 1 (Homo sapiens) (P14778 whole entry): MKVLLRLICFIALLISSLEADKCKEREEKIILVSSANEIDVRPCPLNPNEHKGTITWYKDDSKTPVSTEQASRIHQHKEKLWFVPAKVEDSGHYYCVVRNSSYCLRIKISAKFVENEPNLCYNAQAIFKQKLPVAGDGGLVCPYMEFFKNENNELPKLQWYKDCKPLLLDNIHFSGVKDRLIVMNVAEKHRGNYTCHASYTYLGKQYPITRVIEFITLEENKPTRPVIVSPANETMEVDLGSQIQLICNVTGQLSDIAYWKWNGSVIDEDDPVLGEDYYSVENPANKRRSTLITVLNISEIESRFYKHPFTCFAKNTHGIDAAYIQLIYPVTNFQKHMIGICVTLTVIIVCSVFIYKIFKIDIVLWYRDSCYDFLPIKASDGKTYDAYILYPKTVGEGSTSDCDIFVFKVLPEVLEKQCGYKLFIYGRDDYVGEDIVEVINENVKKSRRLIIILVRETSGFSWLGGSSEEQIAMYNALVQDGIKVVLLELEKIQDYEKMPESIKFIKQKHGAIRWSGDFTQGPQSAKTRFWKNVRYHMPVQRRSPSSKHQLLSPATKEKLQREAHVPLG
Sequence of Alpha-1A adrenergic receptor (Homo sapiens) (P35348 whole entry): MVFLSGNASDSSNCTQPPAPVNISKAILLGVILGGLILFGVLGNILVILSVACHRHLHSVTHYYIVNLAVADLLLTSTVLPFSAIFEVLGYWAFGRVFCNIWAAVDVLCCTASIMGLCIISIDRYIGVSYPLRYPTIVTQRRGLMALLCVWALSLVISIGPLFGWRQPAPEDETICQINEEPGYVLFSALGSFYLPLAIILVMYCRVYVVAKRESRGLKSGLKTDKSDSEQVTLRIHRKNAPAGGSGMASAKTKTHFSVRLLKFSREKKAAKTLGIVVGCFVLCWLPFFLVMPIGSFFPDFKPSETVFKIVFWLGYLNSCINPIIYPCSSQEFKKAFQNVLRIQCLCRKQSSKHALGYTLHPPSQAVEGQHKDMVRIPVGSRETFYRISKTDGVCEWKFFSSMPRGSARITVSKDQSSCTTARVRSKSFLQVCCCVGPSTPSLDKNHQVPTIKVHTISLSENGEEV
Sequence of Neuropeptide Y receptor type 2 (Homo sapiens) (P49146 whole entry): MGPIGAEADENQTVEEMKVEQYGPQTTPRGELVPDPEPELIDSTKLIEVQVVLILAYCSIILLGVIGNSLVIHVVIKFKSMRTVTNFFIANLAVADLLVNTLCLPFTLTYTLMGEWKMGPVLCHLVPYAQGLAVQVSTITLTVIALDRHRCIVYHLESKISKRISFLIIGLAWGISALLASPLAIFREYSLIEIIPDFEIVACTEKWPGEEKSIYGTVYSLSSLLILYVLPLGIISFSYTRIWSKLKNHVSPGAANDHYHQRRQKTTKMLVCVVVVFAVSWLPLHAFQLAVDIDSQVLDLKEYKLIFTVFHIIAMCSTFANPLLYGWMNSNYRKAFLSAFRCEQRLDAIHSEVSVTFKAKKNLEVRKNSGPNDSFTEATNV
Sequence of Muscarinic acetylcholine receptor M3 (P20309 whole entry): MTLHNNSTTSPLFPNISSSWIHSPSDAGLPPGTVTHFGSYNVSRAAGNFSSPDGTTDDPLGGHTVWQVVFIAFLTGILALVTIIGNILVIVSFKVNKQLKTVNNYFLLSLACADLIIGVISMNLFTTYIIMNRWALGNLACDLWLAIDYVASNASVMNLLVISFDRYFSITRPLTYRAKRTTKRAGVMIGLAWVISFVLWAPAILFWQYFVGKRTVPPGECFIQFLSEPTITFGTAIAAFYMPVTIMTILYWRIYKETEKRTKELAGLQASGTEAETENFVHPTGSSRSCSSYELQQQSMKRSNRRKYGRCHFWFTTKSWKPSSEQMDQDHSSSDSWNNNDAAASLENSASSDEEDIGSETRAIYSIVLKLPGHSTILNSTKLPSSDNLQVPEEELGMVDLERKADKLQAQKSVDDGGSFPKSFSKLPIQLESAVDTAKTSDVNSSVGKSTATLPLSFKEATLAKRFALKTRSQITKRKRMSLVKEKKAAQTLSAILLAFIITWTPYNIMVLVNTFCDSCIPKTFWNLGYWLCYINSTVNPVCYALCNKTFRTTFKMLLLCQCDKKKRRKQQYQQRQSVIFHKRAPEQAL
Sequence of Sigma non-opioid intracellular receptor 1 (Homo sapiens) (Q99720 whole entry): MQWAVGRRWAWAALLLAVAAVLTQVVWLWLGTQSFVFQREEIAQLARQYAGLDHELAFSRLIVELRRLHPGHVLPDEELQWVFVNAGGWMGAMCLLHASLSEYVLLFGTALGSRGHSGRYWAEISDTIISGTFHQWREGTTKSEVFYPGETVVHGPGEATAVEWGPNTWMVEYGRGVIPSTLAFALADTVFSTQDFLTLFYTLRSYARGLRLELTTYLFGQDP
Sequence of Kappa-type opioid receptor (Homo sapiens) (P41145 whole entry): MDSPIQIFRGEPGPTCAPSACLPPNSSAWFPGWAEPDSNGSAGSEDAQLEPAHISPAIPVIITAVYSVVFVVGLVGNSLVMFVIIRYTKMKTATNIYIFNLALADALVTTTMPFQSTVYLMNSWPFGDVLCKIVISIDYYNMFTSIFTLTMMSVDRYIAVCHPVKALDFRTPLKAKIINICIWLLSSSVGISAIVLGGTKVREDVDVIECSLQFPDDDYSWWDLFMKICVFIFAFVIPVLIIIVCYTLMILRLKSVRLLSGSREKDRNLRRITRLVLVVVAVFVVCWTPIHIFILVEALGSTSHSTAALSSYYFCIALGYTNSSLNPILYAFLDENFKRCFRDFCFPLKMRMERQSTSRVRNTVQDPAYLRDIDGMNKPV
Sequence of D(1A) dopamine receptor (Homo sapiens) (P21728 whole entry): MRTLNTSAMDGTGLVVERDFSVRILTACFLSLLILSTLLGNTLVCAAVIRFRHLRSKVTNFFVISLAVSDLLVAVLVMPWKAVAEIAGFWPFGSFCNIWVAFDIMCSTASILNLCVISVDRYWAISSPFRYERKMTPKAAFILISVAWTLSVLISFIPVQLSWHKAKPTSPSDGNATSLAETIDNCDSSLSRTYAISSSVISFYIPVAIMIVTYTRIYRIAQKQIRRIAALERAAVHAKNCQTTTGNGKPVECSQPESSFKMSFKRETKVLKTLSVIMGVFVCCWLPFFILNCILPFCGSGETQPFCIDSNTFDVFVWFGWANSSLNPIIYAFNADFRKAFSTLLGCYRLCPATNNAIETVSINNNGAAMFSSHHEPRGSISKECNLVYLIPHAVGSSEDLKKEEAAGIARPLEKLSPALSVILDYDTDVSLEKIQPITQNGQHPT
Sequence of Adenosine receptor A3 (Homo sapiens) (P0DMS8 whole entry): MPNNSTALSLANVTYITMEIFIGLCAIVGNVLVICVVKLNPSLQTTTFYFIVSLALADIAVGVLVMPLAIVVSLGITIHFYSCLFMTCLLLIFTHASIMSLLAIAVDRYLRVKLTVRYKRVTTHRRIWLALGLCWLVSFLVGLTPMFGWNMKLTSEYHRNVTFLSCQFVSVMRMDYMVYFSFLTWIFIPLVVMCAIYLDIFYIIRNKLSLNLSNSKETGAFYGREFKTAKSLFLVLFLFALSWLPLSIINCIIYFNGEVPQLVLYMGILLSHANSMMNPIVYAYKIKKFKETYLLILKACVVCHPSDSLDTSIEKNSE

SMILES: COc1nnc2sc(C(=O)NC3CN(c4ncc(C(F)(F)F)cn4)C3)c(N)c2c1C
- Activity (Rattus norvegicus [1]): > 50%
- EC50 [2]: > 30 µM
- Activity [3]: > 50%
- Activity [4]: > 50%
- logD [5]: 3.73
- Activity [6]: > 50%
- Activity [7]: > 50%
- Kp uu at 0.25 h [8]: 0.73
- CLH [9]: 30.5 mL/min/kg
- Activity [10]: > 50%
- Activity [11]: > 50%
- Activity [12]: > 50%
- Activity [13]: > 50%
- Activity [14]: > 50%
- solubility [15]: 18 µM (≈ 7.91 µg/mL)
- Activity [16]: > 50%
- IC50 (Cytochrome P450 2C9): > 30 µM
- Activity [17]: > 50%
- Kp uu [18]: 1.5
- EC50 [19]: > 30 µM
- Activity [20]: > 50%
- Activity [21]: > 50%
- Activity [22]: > 50%
- Activity (Rattus norvegicus [23]): > 50%
- Activity (Rattus norvegicus [24]): > 50%
- IC50 (Cytochrome P450 2D6): > 30 µM
- Kp [25]: 1.7
